Columns and labels:
[1] = In vitro human skin permeation study of topical gel formulations (Franz diffusion cells); format: in vitro ADME; settings: saturated gel formulations, skin flux experiments
From the text: The gel formulation of Example 8 was used as the donor phase to determine the permeation of Compound 1.002 through human skin and its effectiveness as a topical application. Three skin donors and three diffusion cells (for each donor) per formulation were used in the in vitro skin permeation experiments. Split thickness dermatomed (approximately at […] thickness) human cadaver skin, supplied by New York Firefighters Skin Bank, NY, was used to determine the permeation rate of the tested compound (i.e., the drug) in vitro. All in vitro skin permeation studies were conducted using the Vertical Diffusion Cells assembly with consoles (Model FDC-6), and heating controllers (Logan Instruments Inc. Somerset, NJ). Each assembly consisted of six vertical, jacketed (37° C.±0.5° C.) 12-mL Franz diffusion cells with magnetic stirrer and 1.767 cm^2 diffusion area.
(§1) Skin flux studies were run for a period of 48 hours. At predetermined intervals (2, 4, 8, 24 and 48 hours) after starting the experiment, the entire contents of the receiver compartment were collected for determining concentrations of the drug by HPLC. The receiver compartment was refilled with fresh receiver medium. The receiver medium was pH 7.4 phosphate buffer with 0.5 mg/ml of Oleath 20 with the saturation concentration of the drug in the receptor medium being 0.152 mg/ml. This solubility of the drug in the receiver medium was enough to ensure sink conditions throughout each collection interval.
Samples of the receptor phase were obtained at 2, 4, 8, 12, 24 and 48 h and concentrations of Compound 1.002 and 3-(4-morpholinothieno(3,2-d)pyrimidin-2-yl)phenol (metabolite of Compound 1.002, abbreviated as MTPP) were determined using a validated HPLC method. The metabolism of Compound 1.002 to MTPP takes place in the human skin by esterase enzymes.
HPLC method: Column—Gemini C-18 4.6×150 mm, 5 μm particle size; Mobile Phase—water:acetonitrile 25:75 containing 0.1% TFA; Flow Rate—1 mL/min; Detection—274 nm; Column Temperature—40° C.; and Run Time—10 min. The retention times for MTPP and Compound 1.002 were 3.9 and 7.2 minutes, respectively.
The skin flux of drugs and cumulative amount of drugs permeated (sum of MTPP and Compound 1.002) for a period of 48 hours were calculated and are shown in Table 3. FIG. 3 represents a plot of Cumulative amount permeated versus time.

[2] = target: T1, MTOR/FRAP1 (Homo sapiens, UniProt P42345); experiment: Lipid kinase inhibitory activity, ADP-Glo; format: biochemical
T1 construct: purchased Reaction Biology Corporation (RBC)
Protocol: (§2) Lipid kinases: Lipid kinases from Reaction Biology Corporation (RBC) in ADP-Glo format were used.
(§3) Assay Description: The kinase reactions utilized ATP and produced ADP as a byproduct. The ADP production was quantified by ADP-Glo luminescence detection. This assay was a 3-step reaction. First, the kinase reaction with lipid substrate was carried out in the presence of ATP, and the reaction was quenched and depleted remaining ATP with ADP-Glo™ reagent, and then finally ADP was converted to ATP which was measured using a luciferase/luciferin reaction.
(§4) Assay Procedure: The assay was performed according to the steps as follows: • 1. Preparing substrate in freshly prepared reaction buffer; • 2. Delivering kinase into the substrate solution and gently mixing; • 3. Delivering compounds in […] into the kinase reaction mixture by Acoustic technology (Echo550; nanoliter range), incubating for 20 minutes at room temperature; • 4. Delivering ATP into the reaction mixture to initiate the reaction; • 5. Incubating for 30 minutes at 30° C.; • 6. Quenching the reaction with ADP-Glo reagent and incubating for 40 minutes; • 7. Adding Detection Mixture and incubating for 30 minutes; and • 8. Measuring luminescence.
(§5) Data Analysis: The luminescence was converted into μM ADP production based on ADP standard curves. The nonlinear regression to obtain the standard curve and IC50 values were performed using Graphpad Prism software.

[3] = target: T2, PI3K (p110a(E542K)/p85a) (Homo sapiens, UniProt P42336, E542K); experiment: Lipid kinase inhibitory activity, ADP-Glo; format: biochemical; settings: α E542K
T2 construct: purchased Reaction Biology Corporation (RBC)
T2 sequence (P42336 whole entry E542K): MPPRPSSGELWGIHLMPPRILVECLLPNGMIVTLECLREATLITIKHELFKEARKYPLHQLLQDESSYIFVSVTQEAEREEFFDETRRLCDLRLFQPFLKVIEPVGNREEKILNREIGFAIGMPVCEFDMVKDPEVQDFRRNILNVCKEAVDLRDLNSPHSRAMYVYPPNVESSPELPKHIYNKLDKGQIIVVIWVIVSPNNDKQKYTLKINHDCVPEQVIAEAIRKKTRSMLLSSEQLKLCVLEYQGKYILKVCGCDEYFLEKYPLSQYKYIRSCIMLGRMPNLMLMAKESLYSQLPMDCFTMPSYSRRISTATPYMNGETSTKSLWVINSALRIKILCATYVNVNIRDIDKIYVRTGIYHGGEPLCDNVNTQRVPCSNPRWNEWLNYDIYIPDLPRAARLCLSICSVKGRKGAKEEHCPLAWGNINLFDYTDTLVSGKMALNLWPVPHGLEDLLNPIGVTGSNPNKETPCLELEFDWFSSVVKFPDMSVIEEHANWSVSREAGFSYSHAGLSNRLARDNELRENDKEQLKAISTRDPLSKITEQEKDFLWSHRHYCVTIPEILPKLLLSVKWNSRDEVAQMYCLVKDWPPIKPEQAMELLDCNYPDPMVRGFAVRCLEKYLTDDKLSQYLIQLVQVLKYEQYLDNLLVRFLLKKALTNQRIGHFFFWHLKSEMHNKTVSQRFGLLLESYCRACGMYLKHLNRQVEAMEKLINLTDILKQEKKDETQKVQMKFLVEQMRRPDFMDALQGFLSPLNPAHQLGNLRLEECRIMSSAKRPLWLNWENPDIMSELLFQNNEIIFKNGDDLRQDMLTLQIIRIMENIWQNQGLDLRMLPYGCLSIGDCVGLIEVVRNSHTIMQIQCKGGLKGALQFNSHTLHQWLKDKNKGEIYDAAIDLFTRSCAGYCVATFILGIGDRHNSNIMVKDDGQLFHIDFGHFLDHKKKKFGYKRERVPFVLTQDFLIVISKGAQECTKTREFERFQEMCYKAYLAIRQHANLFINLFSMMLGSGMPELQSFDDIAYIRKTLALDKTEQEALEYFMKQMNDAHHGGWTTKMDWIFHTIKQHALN
T2 sequence (P27986 whole entry partner): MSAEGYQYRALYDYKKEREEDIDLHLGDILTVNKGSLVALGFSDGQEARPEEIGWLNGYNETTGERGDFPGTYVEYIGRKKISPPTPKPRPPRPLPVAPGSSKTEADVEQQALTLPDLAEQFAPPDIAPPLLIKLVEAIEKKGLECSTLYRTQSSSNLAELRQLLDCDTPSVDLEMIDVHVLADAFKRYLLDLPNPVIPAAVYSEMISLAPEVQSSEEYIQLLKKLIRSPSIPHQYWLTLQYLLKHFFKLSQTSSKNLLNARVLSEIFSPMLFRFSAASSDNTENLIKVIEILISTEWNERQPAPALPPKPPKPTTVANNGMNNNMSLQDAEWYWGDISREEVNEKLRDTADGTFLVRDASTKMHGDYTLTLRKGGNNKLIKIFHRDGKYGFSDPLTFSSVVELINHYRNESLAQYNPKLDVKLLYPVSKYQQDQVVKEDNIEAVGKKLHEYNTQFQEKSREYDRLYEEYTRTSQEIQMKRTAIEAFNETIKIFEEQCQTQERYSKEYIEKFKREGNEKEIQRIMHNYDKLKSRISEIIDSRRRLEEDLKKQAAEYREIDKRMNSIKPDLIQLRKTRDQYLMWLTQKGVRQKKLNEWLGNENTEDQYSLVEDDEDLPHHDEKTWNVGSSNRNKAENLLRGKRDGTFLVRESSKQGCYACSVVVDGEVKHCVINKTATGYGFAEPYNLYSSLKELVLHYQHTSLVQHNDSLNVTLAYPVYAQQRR
Protocol: as §2, §3, §4, §5

[4] = target: T3, PI3K (p110a(E545K)/p85a) (Homo sapiens, UniProt P42336, E545K); experiment: Lipid kinase inhibitory activity, ADP-Glo; format: biochemical; settings: α E545K
T3 construct: purchased Reaction Biology Corporation (RBC)
T3 sequence (P42336 whole entry E545K): as the sequence (P42336 whole entry E542K) above, with K542E, E545K counted along it
T3 sequence (P27986 whole entry partner): as the sequence (P27986 whole entry partner) above
Protocol: as §2, §3, §4, §5

[5] = target: T4, PI3K (p110a(H1047R)/p85a) (Homo sapiens, UniProt P42336, H1047R); experiment: Lipid kinase inhibitory activity, ADP-Glo; format: biochemical; settings: α H1047R
T4 construct: purchased Reaction Biology Corporation (RBC)
T4 sequence (P42336 whole entry H1047R): as the sequence (P42336 whole entry E542K) above, with K542E, H1047R counted along it
T4 sequence (P27986 whole entry partner): as the sequence (P27986 whole entry partner) above
Protocol: as §2, §3, §4, §5

[6] = target: T5, PI3Ka (p110a/p85a) (Homo sapiens, UniProt P42336); experiment: Lipid kinase inhibitory activity, ADP-Glo; format: biochemical; settings: α
T5 construct: purchased Reaction Biology Corporation (RBC)
T5 sequence (P42336 whole entry): as the sequence (P42336 whole entry E542K) above, with K542E counted along it
T5 sequence (P27986 whole entry partner): as the sequence (P27986 whole entry partner) above
Protocol: as §2, §3, §4, §5

[7] = target: T6, PI3Kb (p110b/p85a) (Homo sapiens, UniProt P42338); experiment: Lipid kinase inhibitory activity, ADP-Glo; format: biochemical; settings: β
T6 construct: purchased Reaction Biology Corporation (RBC)
T6 sequence (P42338 whole entry): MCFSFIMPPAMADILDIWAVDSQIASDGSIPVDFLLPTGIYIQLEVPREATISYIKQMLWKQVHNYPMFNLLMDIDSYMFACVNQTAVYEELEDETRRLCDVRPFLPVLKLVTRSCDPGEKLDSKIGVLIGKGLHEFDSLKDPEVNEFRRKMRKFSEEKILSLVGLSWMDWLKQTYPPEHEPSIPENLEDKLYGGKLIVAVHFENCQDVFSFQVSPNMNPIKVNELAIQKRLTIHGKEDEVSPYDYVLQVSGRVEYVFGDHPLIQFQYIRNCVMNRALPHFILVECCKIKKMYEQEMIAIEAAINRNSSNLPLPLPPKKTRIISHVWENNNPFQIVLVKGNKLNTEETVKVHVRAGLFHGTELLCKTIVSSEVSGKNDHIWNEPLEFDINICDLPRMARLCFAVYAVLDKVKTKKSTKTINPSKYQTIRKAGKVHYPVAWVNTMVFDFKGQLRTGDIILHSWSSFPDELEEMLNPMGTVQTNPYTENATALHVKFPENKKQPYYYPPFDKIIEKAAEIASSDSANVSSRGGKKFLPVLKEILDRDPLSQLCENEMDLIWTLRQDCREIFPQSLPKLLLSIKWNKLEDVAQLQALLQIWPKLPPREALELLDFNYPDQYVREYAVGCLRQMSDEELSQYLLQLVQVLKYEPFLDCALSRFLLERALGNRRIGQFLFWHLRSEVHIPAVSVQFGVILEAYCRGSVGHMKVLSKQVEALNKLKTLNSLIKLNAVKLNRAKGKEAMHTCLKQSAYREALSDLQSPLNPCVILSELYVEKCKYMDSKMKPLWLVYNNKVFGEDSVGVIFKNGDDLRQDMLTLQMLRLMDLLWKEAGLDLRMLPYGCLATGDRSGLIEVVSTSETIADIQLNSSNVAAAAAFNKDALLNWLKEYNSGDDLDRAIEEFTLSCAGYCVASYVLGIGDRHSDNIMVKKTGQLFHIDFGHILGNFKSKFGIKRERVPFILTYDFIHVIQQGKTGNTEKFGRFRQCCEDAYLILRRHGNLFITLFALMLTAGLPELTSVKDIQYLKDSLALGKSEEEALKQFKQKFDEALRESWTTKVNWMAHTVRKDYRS
T6 sequence (P27986 whole entry partner): as the sequence (P27986 whole entry partner) above
Protocol: as §2, §3, §4, §5

[8] = target: T7, PI3Kd (p110d/p85a) (Homo sapiens, UniProt O00329); experiment: Lipid kinase inhibitory activity, ADP-Glo; format: biochemical; settings: δ
T7 construct: purchased Reaction Biology Corporation (RBC)
T7 sequence (O00329 whole entry): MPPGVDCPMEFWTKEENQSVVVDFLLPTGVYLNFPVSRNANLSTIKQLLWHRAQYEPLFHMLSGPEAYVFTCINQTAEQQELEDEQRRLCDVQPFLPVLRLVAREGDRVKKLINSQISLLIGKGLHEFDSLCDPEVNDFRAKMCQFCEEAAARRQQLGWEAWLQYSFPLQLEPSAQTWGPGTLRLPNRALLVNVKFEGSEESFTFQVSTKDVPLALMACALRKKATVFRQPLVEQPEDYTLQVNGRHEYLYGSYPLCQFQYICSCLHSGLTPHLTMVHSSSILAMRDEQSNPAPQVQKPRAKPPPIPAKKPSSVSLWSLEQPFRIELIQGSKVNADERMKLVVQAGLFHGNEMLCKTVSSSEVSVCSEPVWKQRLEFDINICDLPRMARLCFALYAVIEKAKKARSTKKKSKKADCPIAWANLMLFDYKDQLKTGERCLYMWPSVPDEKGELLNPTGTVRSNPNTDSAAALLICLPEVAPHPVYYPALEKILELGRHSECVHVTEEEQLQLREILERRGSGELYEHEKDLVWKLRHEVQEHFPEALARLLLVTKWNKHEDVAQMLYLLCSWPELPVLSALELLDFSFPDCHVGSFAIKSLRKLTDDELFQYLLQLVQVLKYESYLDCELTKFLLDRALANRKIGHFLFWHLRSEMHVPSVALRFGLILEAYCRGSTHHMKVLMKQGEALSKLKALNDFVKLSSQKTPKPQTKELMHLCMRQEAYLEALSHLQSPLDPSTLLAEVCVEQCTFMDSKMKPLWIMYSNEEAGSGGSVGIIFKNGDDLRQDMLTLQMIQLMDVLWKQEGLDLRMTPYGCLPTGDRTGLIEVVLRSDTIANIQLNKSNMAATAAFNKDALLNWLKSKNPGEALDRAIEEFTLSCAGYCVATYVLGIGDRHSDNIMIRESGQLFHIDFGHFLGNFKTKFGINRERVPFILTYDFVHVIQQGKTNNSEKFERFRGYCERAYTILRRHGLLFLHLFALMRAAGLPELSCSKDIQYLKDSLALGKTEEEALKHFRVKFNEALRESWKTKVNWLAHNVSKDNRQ
T7 sequence (P27986 whole entry partner): as the sequence (P27986 whole entry partner) above
Protocol: as §2, §3, §4, §5

[9] = target: T8, PI3Kg (p110g) (Homo sapiens, UniProt P48736); experiment: Lipid kinase inhibitory activity, ADP-Glo; format: biochemical; settings: γ
T8 construct: purchased Reaction Biology Corporation (RBC)
Protocol: as §2, §3, §4, §5

[10] = In vitro human skin permeation study of topical gel formulations (Franz diffusion cells); format: in vitro ADME; settings: human skin; for Cumulative permeation (intact compound): Study-4, saturated gel; for Cumulative permeation, Compound 1.012 / Hydrolysis of Cmpd. 1.012 to MTPP: Study-6, gel saturated at 58 mg/mL
[11] = test system: PI3K; settings: U.S. Pat. No. 6,838,457; cited from earlier work
[12] = test system: cancer cell; settings: U.S. Pat. No. 6,838,457; cited from earlier work
[13] = Saturation concentration in formulation or receiver medium; format: physicochemical; settings: gel formulation with excipients of Example 8 (Table 2)
Protocol: The liquid excipients, i.e. DMSO, oleic acid, Transcutol® P, and dipropylene glycol were mixed in a 20-mL vial, by vortex agitation. The active ingredient, a compound of formula (I), for example Compound 1.002 was then added, and the vial content was sonicated for 10 minutes to dissolve the compound. […] Hydroxylpropyl cellulose (HPC) was added, and the vial was agitated by vortex for another ten minutes to obtain the gel formulation. The viscosity of the clear gel was measured to be in a range of about 7,000 to 10,000 centipoise (cp).
as §1

[14] = Accelerated stability study of topical gel formulations at 80° C.; format: physicochemical; settings: gel formulation (Table 2 excipients), 80° C.
Protocol: Topical gel formulations were prepared using excipients as shown in Table 2 according to Example 8, in which Compounds 1.002, 1.012, and 1.006 were used as the active ingredient, respectively. These gel formulations were subjected to stability study at 80° C. for 10 days. Stability under the condition of at 80° C. for 10 days is expected to be approximately equivalent to the stability for three (3) years at room temperature. A relative purity of the tested compound after being exposed for 5 days and 10 days at 80° C. was determined by HPLC, as compared to its initial purity (at day 0).
The values shown in the table are percent hydrolysis of the respective compounds to the parent compound MTPP.
Topical gel formulations of Compound 1.002 were prepared using excipients as shown in Table 2 according to Example 8, in which the content of oleic acid varied at 1%, 2%, 5%, and 10%, respectively. These gel formulations were subjected to stability study at 80° C. for 10 days, which is expected to be approximately equivalent to the stability for three (3) years at room temperature. A purity of the tested compound on day 0, 5, 7, and 10 at 80° C. was determined by HPLC. The detected impurity of the tested compound appears to be the hydrolysis product, as MTPP. Table 17 represents stability data of Compound 1.002 in topical formulations having oleic acid at various contents.
Gel formulations of Example 17 were subjected to stability study at 80° C. for 10 days. Stability under the condition of at 80° C. for 10 days is expected to be approximately equivalent to the stability for three (3) years at room temperature. A relative purity of Compound 1.002 after being exposed for 5 days and 10 days at 80° C. was determined by HPLC, as compared to its initial purity (at day 0).

SMILES: Oc1cccc(-c2nc(N3CCOCC3)c3sccc3n2)c1 [MTPP, 3-(4-morpholinothieno(3,2-d)pyrimidin-2-yl)phenol, reference compound]
- Metabolism to MTPP during permeation through human skin [1]: permeated as its intact compound
- IC50 [2]: 218 nM
- IC50 [3]: 5.6 nM
- IC50 [4]: 6.3 nM
- IC50 [5]: 7.2 nM
- IC50 [6]: 5.2 nM
- IC50 [7]: 38 nM
- IC50 [8]: 19 nM
- IC50 [9]: 90 nM
- Cumulative permeation (intact compound) ([10]; 2 h): 0.23 μg/cm^2
- Cumulative permeation (intact compound) ([10]; 4 h): 4.74 μg/cm^2
- Cumulative permeation (intact compound) ([10]; 8 h): 15.85 μg/cm^2
- Cumulative permeation (intact compound) ([10]; 24 h): 43.32 μg/cm^2
- Cumulative permeation (intact compound) ([10]; 48 h): 70.13 μg/cm^2
- PI3K inhibiting activity [11]: excellent PI3K inhibiting activity
- Cancer cell growth inhibiting activity [12]: cancer cell growth inhibiting activity

SMILES: CCOC(=O)Oc1cccc(-c2nc(N3CCOCC3)c3sccc3n2)c1 [Compound 1.012, Ethyl (3-(4-morpholinothieno[3,2-d]pyrimidin-2-yl)phenyl) Carbonate]
- Metabolism to MTPP during permeation through human skin [1]: completely metabolize into MTPP
- Saturation concentration in the gel formulation [13]: 58 mg/mL
- Relative Purity ([14]; Day 0): 100%
- Relative Purity ([14]; Day 5): 99%
- Relative Purity ([14]; Day 10): 96%
- Cumulative permeation, Compound 1.012 ([10]; 2 h): 0.0 μg/cm^2
- Hydrolysis of Cmpd. 1.012 to MTPP ([10]; 2 h): 100%
- Cumulative permeation, Compound 1.012 ([10]; 4 h): 0.0 μg/cm^2
- Hydrolysis of Cmpd. 1.012 to MTPP ([10]; 4 h): 100%
- Cumulative permeation, Compound 1.012 ([10]; 8 h): 0.0 μg/cm^2
- Hydrolysis of Cmpd. 1.012 to MTPP ([10]; 8 h): 100%
- Cumulative permeation, Compound 1.012 ([10]; 24 h): 0.0 μg/cm^2
- Hydrolysis of Cmpd. 1.012 to MTPP ([10]; 24 h): 100%
- Cumulative permeation, Compound 1.012 ([10]; 48 h): 0.0 μg/cm^2
- Hydrolysis of Cmpd. 1.012 to MTPP ([10]; 48 h): 100%

— patent publication US12522614B2, “Topical phosphoinositide 3-kinase inhibitors” (VENTHERA, INC., priority 2019, dated 2026)
